Key:
Type in all cases: cell-based
[1] = tested on: Isogenic E. coli J58 strain carrying KPC-2; test: MIC determination, isogenic E. coli strains; conditions: Escherichia coli, 18 h, read-out: Mimimum Inhibitory Concentrations, KPC-2
How it was run: (§1)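 Broth microdilution in cation-adjusted Mueller-Hinton broth with 20 μM apo-transferrin, compound at 64 down to […], inoculum set to 0.5 McFarland. E. coli J53 transformed with pBC-SK(+) carrying the synthetic beta-lactamase gene was used. Plates were incubated 18 h at 37 °C; MIC is the lowest concentration giving a clear well.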

[2] = tested on: Isogenic E. coli J58 strain carrying KPC-3; test: MIC determination, isogenic E. coli strains; conditions: Escherichia coli, 18 h, read-out: Mimimum Inhibitory Concentrations, KPC-3
How it was run: as §1

[3] = tested on: E. coli J53 Alone; test: MIC determination, isogenic E. coli strains
How it was run: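 Broth microdilution in cation-adjusted Mueller-Hinton broth with 20 μM apo-transferrin, 2-fold compound series from 64 μg/mL. E. coli J53, alone or transformed with a pBC-SK(+) plasmid carrying the beta-lactamase gene (e.g. DHA-1), inoculated from 0.5 McFarland suspension; 18 h at 37° C; MIC = lowest concentration with clear well.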

[4] = tested on: Isogenic E. coli J58 strain carrying SHV-1; test: MIC determination, isogenic E. coli strains; conditions: Escherichia coli, 18 h, read-out: Mimimum Inhibitory Concentrations, SHV-1
How it was run: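 MIC is the lowest compound concentration leaving a transparent well after overnight (18 h) incubation at 37 °C. The test strain was E. coli J53 expressing plasmid-borne SHV-1 beta-lactamase from pBC-SK(+), adjusted to 0.5 McFarland. Compounds were twofold serially diluted, starting at 64 μg/mL, in CAMH broth supplemented with 20 μM apo-transferrin.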

[5] = tested on: Pseudomonas aeruginosa PA-RR-(98023895); test: MIC determination; conditions: Pseudomonas aeruginosa; PA-RR-(98023895); CAMH broth, 20 μM Apo-Transferrin, 37° C., 18 hours; read-out: Minimum Inhibitory Concentrations, PA-RR-(98023895)
How it was run: (§2)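 Broth microdilution in cation-adjusted Mueller-Hinton broth with 20 μM apo-transferrin, two-fold compound series from 64 μg/mL, inoculum adjusted to 0.5 McFarland from 4-5 h LB cultures. Plates incubated 18 h at 37 °C. MIC taken as lowest concentration leaving a clear well.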

[6] = tested on: Pseudomonas aeruginosa PA (URMC-2); test: MIC determination; conditions: Pseudomonas aeruginosa; PA (URMC-2); CAMH broth, 20 μM Apo-Transferrin, 37° C., 18 hours; read-out: Minimum Inhibitory Concentrations, PA (URMC-2)
How it was run: as §2

[7] = tested on: Pseudomonas aeruginosa PA (URMC-3); test: MIC determination; conditions: Pseudomonas aeruginosa; PA (URMC-3); CAMH broth, 20 μM Apo-Transferrin, 37° C., 18 hours; read-out: Minimum Inhibitory Concentrations, PA (URMC-3)
How it was run: as §2

[8] = tested on: Pseudomonas aeruginosa PA-RR-(G8062859); test: MIC determination; conditions: Pseudomonas aeruginosa; PA-RR-(G8062859); CAMH broth, 20 μM Apo-Transferrin, 37° C., 18 hours; read-out: Minimum Inhibitory Concentrations, PA-RR-(G8062859)
How it was run: as §2

[9] = tested on: Pseudomonas aeruginosa PA-RR-(purple Fre D); test: MIC determination; conditions: Pseudomonas aeruginosa, CAMH broth, 20 μM Apo-Transferrin, 37° C., 18 hours, read-out: Minimum Inhibitory Concentrations, PA-RR-(purple Fre D)
How it was run: as §2

[10] = tested on: Pseudomonas aeruginosa PA-RR-(G7305586); test: MIC determination; conditions: Pseudomonas aeruginosa; PA-RR-(G7305586); CAMH broth, 20 μM Apo-Transferrin, 37° C., 18 hours; read-out: Minimum Inhibitory Concentrations, PA-RR-(G7305586)
How it was run: as §2

[11] = tested on: Pseudomonas aeruginosa PA-RR-(980151052); test: MIC determination; conditions: Pseudomonas aeruginosa; PA-RR-(980151052); CAMH broth, 20 μM Apo-Transferrin, 37° C., 18 hours; read-out: Minimum Inhibitory Concentrations, PA-RR-(980151052)
How it was run: as §2

[12] = tested on: Pseudomonas aeruginosa PA (RR-1); test: MIC determination; conditions: Pseudomonas aeruginosa; PA (RR-1); CAMH broth, 20 μM Apo-Transferrin, 37° C., 18 hours; read-out: Minimum Inhibitory Concentrations, PA (RR-1)
How it was run: as §2

[13] = tested on: Pseudomonas aeruginosa PA-RR-(G7294437); test: MIC determination; conditions: Pseudomonas aeruginosa; PA-RR-(G7294437); CAMH broth, 20 μM Apo-Transferrin, 37° C., 18 hours; read-out: Minimum Inhibitory Concentrations, PA-RR-(G7294437)
How it was run: as §2

[14] = tested on: Pseudomonas aeruginosa PA-RR-(G7304100); test: MIC determination; conditions: Pseudomonas aeruginosa; PA-RR-(G7304100); CAMH broth, 20 μM Apo-Transferrin, 37° C., 18 hours; read-out: Minimum Inhibitory Concentrations, PA-RR-(G7304100)
How it was run: as §2

[15] = tested on: Pseudomonas aeruginosa (PA); test: MIC determination; conditions: Pseudomonas aeruginosa; PA; CAMH broth, 20 μM Apo-Transferrin, 37° C., 18 hours; read-out: Minimum Inhibitory Concentrations, PA
How it was run: as §2

[16] = tested on: Pseudomonas aeruginosa PA (RR-2); test: MIC determination; conditions: Pseudomonas aeruginosa; PA (RR-2); CAMH broth, 20 μM Apo-Transferrin, 37° C., 18 hours; read-out: Minimum Inhibitory Concentrations, PA (RR-2)
How it was run: as §2

[17] = tested on: Isogenic E. coli J58 strain carrying NDM-1; test: MIC determination, isogenic E. coli strains; conditions: Escherichia coli, 18 h, read-out: Mimimum Inhibitory Concentrations, NDM-1
How it was run: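 E. coli J53 transformed with a pBC-SK(+) plasmid encoding NDM-1 was adjusted to 0.08-0.1 OD600. It was grown 18 h at 37° C in CAMH broth containing 20 μM apo-transferrin with twofold compound dilutions from 64 μg/mL. MIC was taken as the lowest concentration giving a transparent well.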

[18] = tested on: Isogenic E. coli J58 strain carrying IMP-1; test: MIC determination, isogenic E. coli strains; conditions: Escherichia coli, 18 h, read-out: Mimimum Inhibitory Concentrations, IMP-1
How it was run: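 Broth microdilution in cation-adjusted Mueller-Hinton broth with 20 μM apo-transferrin, compound serially diluted two-fold from 64 μg/mL, against E. coli J53 carrying plasmid-borne IMP-1. Inoculum adjusted to 0.5 McFarland; plates incubated 18 h at 37° C. MIC taken as lowest concentration giving a clear well.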

CC(C)(O/N=C(\C(=O)N[C@@H]1C(=O)N2C(C(=O)O)=C(C=Cc3ccc(C[N+](C)(C)Cc4ccc(O)c(O)c4Cl)cc3)CS[C@H]12)c1csc(N)n1)C(=O)O (mixture of isomers) [Compound 434, N-(4-((E/Z)-2-((6R,7R)-7-((Z)-2-(2-aminothiazol-4-yl)-2-(((2-carboxypropan-2-yl)oxy)imino)acetamido)-2-carboxy-8-oxo-5-thia-1-azabicyclo[4.2.0]oct-2-en-3-yl)vinyl)benzyl)-1-(2-chloro-3,4-dihydroxyphenyl)-N,N-dimethylmethanaminium]
MIC [1]: 16 µg/mL | MIC [2]: 64 µg/mL | MIC ([3]; Escherichia coli, J53ALONE, 18 h, read-out: Mimimum Inhibitory Concentrations, J53 Alone): 0.25 µg/mL | Mimimum Inhibitory Concentrations, J53 Alone ([3]; J53 Alone, Table 4-2, CAMH broth, 20 μM Apo-Transferrin, 37° C., 18 hours): 0.25 microgram/mL | MIC [4]: 1 µg/mL | MIC [5]: 8 µg/mL | MIC [6]: 8 µg/mL | MIC [7]: 16 µg/mL | MIC [8]: 2 µg/mL | MIC [9]: 2 µg/mL | MIC [10]: 8 µg/mL | MIC [11]: 4 µg/mL | MIC [12]: 1 µg/mL | MIC [13]: 0.5 µg/mL | MIC [14]: 2 µg/mL | MIC [15]: 4 µg/mL | MIC [16]: 2 µg/mL | MIC [17]: > 64 µg/mL | MIC [18]: 0.25 µg/mL

Reference: patent publication US20190100534A1, “Cephem Compounds with Latent Reactive Groups” (Gladius Pharmaceuticals, Inc., priority 2017, published 2019)
